Laboratory results: patent US20230042729A1, “PEPTIDE CONSTRUCTS AND COMPOSITIONS” (DIET4LIFE APS, priority 2019, published 2023)
No end group written: not given here.

Key:
murine intestinal cells = murine intestinal cells (Mus musculus, UniProt O88319); assay: Ca2+ flux / calcium response assay (cell signaling activity); format: cell-based
Procedure: Ca^2+ Flux Assay/Calcium Response Assay:
Elevation of intracellular calcium level was measured using the fluorescent calcium chelating dye Fluo-4 AM (ThermoFischer Scientific, Denmark). Briefly, cells were grown as a monolayer in 96-well tissue culture plates (Sarstedt, Germany) to near confluence in appropriate growth medium as described in the cell culture section.
All test compounds were dissolved in water, and then diluted in 1×HBSS containing 25 mM HEPES (pH 7.4), 1% BSA and 2% ink. […]

[1] = Stability of peptides in serum, remaining activity read in intestinal cells; format: in vitro ADME, Bovine; conditions: octapeptides; fraction of peptide activity left after 10 min of incubation in serum at 37° C. compared with undigested sample
Procedure: All peptides were incubated at 10^−5 M with Fetal Bovine Serum (FBS; final concentration of 66.7%) (Sigma Aldrich, Denmark) at 37° C. for 3 hours. The peptide degradation was terminated using 1 M phosphoric acid (final 0.4 M, pH˜1.2) and neutralized to pH 7.2-7.4 with NaOH before testing activity in intestinal cells. As for small intestine homogenates, a zero degradation control was included for each peptide.
DC7-2, NT, DKPYIL and NT-(8-13) (final concentration of 10^−6 M) were incubated either with FBS or with 270× diluted intestinal homogenate at 37° C. for various time points with shaking. Degradation was stopped with 1 M phosphoric acid and the samples were subsequently neutralized and immediately tested with intestinal cells as described above. Control for zero degradation was included for each peptide as above.
(§1) The 20 hexapeptides with systematic N-terminal substitutions (X-KPYIL) (Schafer-N, Denmark) and NT (8-13) was incubated at 10^−6 M in either FBS for 10 minutes or with 270× diluted intestinal homogenate for 30 minutes at 37° C. with shaking. The degradation was stopped with 1 M phosphoric acid. Peptide solutions were neutralized with NaOH (pH 7.2-7.4), diluted and immediately tested for bioactivity using murine intestinal cells. Determination of EC50 for stimulation of cells allowed calculation of recovered peptide.

[2] = Stability of peptides in intestine homogenate, remaining activity read in intestinal cells; format: in vitro ADME, mice; conditions: octapeptides; % activity left after 30 min incubation in intestine homogenate at 37° C.
Procedure: Small intestines from 20 Swiss-Webster males were homogenized in 350 ml Dulbecco's phosphate-buffered saline (PBS) (pH 7.4) (ThermoFischer Scientific, Denmark) with a IKA® basic 18 Ultra-Turrax tissue homogenizer set a speed 5 followed by filtration using 100 μm nylon mesh filter. Protein concentration was 6 mg/ml using the bicinconinic acid assay (ThermoFischer Scientific, Denmark) and bovine serum albumin as standard. The intestine homogenate was diluted 10 times in HBSS containing 25 mM HEPES (pH 7.4), and further diluted 30×, 90×, 270×, 810× or 2430× before incubation with peptides. All solutions were prewarmed to 37° C. before mixing with peptide solutions.
Peptides were incubated at 10^−5 M with dilutions of small intestine homogenate at 37° C. for 90 minutes with shaking. Reactions were stopped by addition of 1 M phosphoric acid (final 0.4 M, pH˜1.2). Each peptide incubation mix was then neutralized with NaOH to pH 7.2-7.4 and immediately tested for activity in intestinal cells. Control for zero degradation, i.e. addition of 1 M phosphoric acid prior to addition of intestine homogenate, was included for each peptide. […]
as §1

murine intestinal cells, sequence (O88319 whole entry): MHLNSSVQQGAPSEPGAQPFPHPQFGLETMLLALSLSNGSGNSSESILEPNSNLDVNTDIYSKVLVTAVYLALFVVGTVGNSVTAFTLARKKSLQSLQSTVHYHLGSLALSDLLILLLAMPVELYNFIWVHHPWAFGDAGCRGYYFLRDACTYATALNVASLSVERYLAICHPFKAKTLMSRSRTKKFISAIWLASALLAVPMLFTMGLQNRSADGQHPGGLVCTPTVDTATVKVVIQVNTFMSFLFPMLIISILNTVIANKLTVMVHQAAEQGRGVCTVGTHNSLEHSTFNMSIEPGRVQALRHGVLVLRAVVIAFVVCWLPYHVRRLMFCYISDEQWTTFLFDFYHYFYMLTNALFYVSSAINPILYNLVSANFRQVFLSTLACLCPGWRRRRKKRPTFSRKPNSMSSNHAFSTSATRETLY

NKPYIL [Peptide 35987, N KPYIL]
EC50 (murine intestinal cells): 0.5 nM

KPYIL [Peptide 36004, K PYIL]
EC50 (murine intestinal cells): 7.71 nM

MSDKPYIL [Peptide 36046, M SDKPYIL]
EC50 (murine intestinal cells): 4.88 nM | Stability in serum (activity remaining) [1]: 0.0762 | Stability in intestine (activity remaining) [2]: 3.8%

TDKPYIL [Peptide 36032, T DKPYIL]
EC50 (murine intestinal cells): 5.61 nM

RSDKPYIL [Peptide 36050, R SDKPYIL]
EC50 (murine intestinal cells): 4.01 nM | Stability in serum (activity remaining) [1]: 0.0735 | Stability in intestine (activity remaining) [2]: 2.6%

IKPYIL [Peptide 35983, I KPYIL]
EC50 (murine intestinal cells): 0.24 nM

HDKPYIL [Peptide 36022, H DKPYIL]
EC50 (murine intestinal cells): 2.65 nM

PKPYIL [Peptide 35988, P KPYIL]
EC50 (murine intestinal cells): 0.232 nM

DDKPYIL [Peptide 36018, D DKPYIL]
EC50 (murine intestinal cells): 10.5 nM

CC[C@H](C)[C@H](NC(=O)[C@H](Cc1ccc(O)cc1)NC(=O)[C@@H]1CCCN1C(=O)[C@@H](N)CCCNC(=N)N)C(=O)N[C@@H](CC(C)C)C(=O)O [Peptide 36010, R PYIL]
EC50 (murine intestinal cells): 1.18 nM

NSDKPYIL [Peptide 36047, N SDKPYIL]
EC50 (murine intestinal cells): 4.41 nM | Stability in serum (activity remaining) [1]: 0.0872 | Stability in intestine (activity remaining) [2]: 3.9%

VDKPYIL [Peptide 36033, V DKPYIL]
EC50 (murine intestinal cells): 4.94 nM

TKPYIL [Peptide 35992, T KPYIL]
EC50 (murine intestinal cells): 1.16 nM

TPYIL [Peptide 36012, T PYIL]
EC50 (murine intestinal cells): 43.6 nM

MKPYIL [Peptide 35986, M KPYIL]
EC50 (murine intestinal cells): 0.388 nM

CPYIL [Peptide 35997, C PYIL]
EC50 (murine intestinal cells): 69.9 nM

SDKPYIL [Peptide 36031, S DKPYIL]
EC50 (murine intestinal cells): 5 nM

SKPYIL [Peptide 35991, S KPYIL]
EC50 (murine intestinal cells): 1.15 nM

DSDKPYIL [Peptide 36038, D SDKPYIL]
EC50 (murine intestinal cells): 6.15 nM | Stability in serum (activity remaining) [1]: 0.0947 | Stability in intestine (activity remaining) [2]: 29.9%

ISDKPYIL [Peptide 36043, I SDKPYIL]
EC50 (murine intestinal cells): 6.87 nM | Stability in serum (activity remaining) [1]: 0.0956 | Stability in intestine (activity remaining) [2]: 6.0%

LDKPYIL [Peptide 36025, L DKPYIL]
EC50 (murine intestinal cells): 6.41 nM

EDKPYIL [Peptide 36019, E DKPYIL]
EC50 (murine intestinal cells): 3.96 nM

KSDKPYIL [Peptide 36044, K SDKPYIL]
EC50 (murine intestinal cells): 10.7 nM | Stability in serum (activity remaining) [1]: 0.0527 | Stability in intestine (activity remaining) [2]: 6.6%

PPYIL [Peptide 36008, P PYIL]
EC50 (murine intestinal cells): 9.61 nM

HSDKPYIL [Peptide 36042, H SDKPYIL]
EC50 (murine intestinal cells): 3.63 nM | Stability in serum (activity remaining) [1]: 0.0980 | Stability in intestine (activity remaining) [2]: 6.4%

NPYIL [Peptide 36007, N PYIL]
EC50 (murine intestinal cells): 39.3 nM

QDKPYIL [Peptide 36029, Q DKPYIL]
EC50 (murine intestinal cells): 4.97 nM

EPYIL [Peptide 35999, E PYIL]
EC50 (murine intestinal cells): 102 nM

WKPYIL [Peptide 35994, W KPYIL]
EC50 (murine intestinal cells): 5.58 nM

FPYIL [Peptide 36000, F PYIL]
EC50 (murine intestinal cells): 19.5 nM

LSDKPYIL [Peptide 36045, L SDKPYIL]
EC50 (murine intestinal cells): 8.06 nM | Stability in serum (activity remaining) [1]: 0.0917 | Stability in intestine (activity remaining) [2]: 7.9%

VSDKPYIL [Peptide 36053, V SDKPYIL]
EC50 (murine intestinal cells): 5.15 nM | Stability in serum (activity remaining) [1]: 0.0488 | Stability in intestine (activity remaining) [2]: 5.6%

QSDKPYIL [Peptide 36049, Q SDKPYIL]
EC50 (murine intestinal cells): 4.01 nM | Stability in serum (activity remaining) [1]: 0.0742 | Stability in intestine (activity remaining) [2]: 8.8%

ADKPYIL [Peptide 36016, A DKPYIL]
EC50 (murine intestinal cells): 3.52 nM

IDKPYIL [Peptide 36023, I DKPYIL]
EC50 (murine intestinal cells): 4.77 nM
